Test results as given in patent EP4635969A1, “NOVEL GLUCOCORTICOID, METHOD FOR PREPARING SAME, AND USE THEREOF” (Tianjin Pharmaceutical Biotechnology Co., Ltd., priority 2022, dated 2024).
Like-named read-outs stand apart in the source and are kept apart here.

What was measured:
[1] = tested on: inflammatory bowel disease model rats; experiment: Inflammatory bowel disease experiment (TNBS model): macroscopic injury score of the colon; format: in vivo; details: for inflammatory response on the intestinal surface / intestinal symptoms: compared with the model group
Method: Pharmacological Example 7: Pharmacodynamic Experiment on Inflammatory Bowel Disease in Rats
Test samples: The jet-milled compounds 23 and 34 were accurately weighed and prepared as 2 mg/mL clear solutions using anhydrous ethanol, respectively. The solutions were then diluted to 0.2 mg/mL with double-distilled water as the test samples, and stored at room temperature protected from light until use.
Animals in Groups 2 to 5 were subjected to trinitrobenzene sulfonic acid (TNBS) modeling as follows: A 5% TNBS aqueous solution was adjusted to 20 mg/mL TNBS (50% ethanol solution) with alcohol and water. After fasting for 24 h, the rats were anesthetized using an inhalation anesthesia machine. A silicone hose was inserted approximately 8 cm into the anus, and then TNBS was injected at a dose of 50 mg/kg. After injection, the rats were placed vertically for 1 min to prevent the backflow of TNBS solution. Then, the rats were placed into their cages for observation until the animals recovered.
Drug administration started one day before modeling, with one dose administered 1 hour before modeling and then once a day for 5 consecutive days. […] Table 14. Animal grouping and drug administration dosages
The experiment ended on day 5 after TNBS modeling. After isoflurane anesthesia, blood was collected from the hearts, and the rats were euthanized. The abdominal cavity was rapidly opened, and the macroscopic injury scoring of the colon in rats was performed based on the adhesion, obstruction, thickening of the colonic wall, colonic congestion, and necrosis in the colon area. After clearing the colonic contents, the colonic samples were longitudinally incised. The proximal 2/3 of the colon was excised, prepared into Swiss rolls, and stored in 4% neutral buffered formalin for histopathological analysis. Tissues were trimmed, dehydrated, paraffin-embedded, and sectioned (approximately 5 µm thickness), stained with hematoxylin-eosin (HE), and observed for pathological changes. Pathologists performed blind scoring of colonic lesions.
Quantitative indices were first subjected to Bartlett's test for homogeneity of variance. When the variance was homogeneous (P > 0.05), one-way analysis of variance (ANOVA) was used for a statistical test; if there was statistical significance (P ≤ 0.05), Dunnett's t-test (Dunnett method) was used to compare intergroup differences; if there was no statistical significance (P > 0.05), the statistical analysis was concluded. When the variance was heterogeneous (P ≤ 0.05), Kruskal-Wallis H rank-sum test (K-W method) was used for statistical analysis: if there was statistical significance (P ≤ 0.05), Mann-Whitney U test (M-W method) was further performed to compare intergroup differences; if there was no statistical significance (P > 0.05), the statistical analysis was concluded.

[2] = target: T1, progesterone receptor (PR) (Homo sapiens, UniProt P06401); experiment: Assay for agonist activity on progesterone receptor (luciferase reporter, HEK293 cells transfected with pBIND-PR plasmid); format: cell-based; details: for Target selectivity PR/GR: ratio of EC50 values
T1 sequence (P06401 678-933): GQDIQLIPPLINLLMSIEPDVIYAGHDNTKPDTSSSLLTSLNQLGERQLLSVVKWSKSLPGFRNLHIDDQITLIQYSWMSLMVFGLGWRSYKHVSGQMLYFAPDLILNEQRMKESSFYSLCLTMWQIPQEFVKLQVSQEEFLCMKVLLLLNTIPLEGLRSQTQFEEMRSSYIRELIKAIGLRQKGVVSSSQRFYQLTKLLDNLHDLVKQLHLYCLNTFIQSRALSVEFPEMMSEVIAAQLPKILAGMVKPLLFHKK
Outline: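 HEK293 cells transiently transfected with pBIND-MR or pBIND-PR, seeded in phenol red-free DMEM with 5% charcoal-stripped serum. Compounds tested as 12-point 4-fold dilutions from 50 µM in duplicate, 0.1% DMSO blank. Luciferase luminescence read, EC50 by nonlinear fit.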

Row | SMILES | inflammatory response on the intestinal surface / intestinal symptoms [1] | Target selectivity PR/GR [2] | other results
1 | C[C@]12C=CC(=O)C=C1CC[C@H]1[C@@H]3C[C@H]4OC(c5ccc(COC6CCOC6=O)cc5)O[C@@]4(C(=O)CO)[C@@]3(C)C[C@H](O)[C@@]12F (stereo partly drawn) [Compound 16, (6aS,6bR,7S,8aS,8bS,11aR,12aS,12bS)-6b-Fluoro-7-hydroxy-8b-(2-hydroxyacetyl)-6a,8a-dimethyl-10-(4-(((2-oxotetrahydrofuran-3-yl)oxy)methyl)phenyl)-1,2,6a,6b,7,8,8a,8b,11a,12,12a,12b-do decahydro-4H-naphtho[2',1':4,5]indeno[1,2-d][1,3]dioxol-4-one] | significantly alleviated the intestinal symptoms in inflammatory bowel disease model rats | > 1.2×10^5 | EC50 [2]: > 50000 nM
2 | C[C@]12C=CC(=O)C=C1CC[C@H]1[C@@H]3C[C@H]4OC(c5ccc(CSC6CCOC6=O)nc5)O[C@@]4(C(=O)CO)[C@@]3(C)C[C@H](O)[C@@]12Cl (stereo partly drawn) [Compound 48, (6aS,6bR,7S,8aS,8bS,11aR,12aS,12bS)-6b-Chloro-7-hydroxy-8b-(2-hydroxyacetyl)-6a,8a-dimethyl-10-(6-(((2-oxotetrahydrofuran-3-yl)thio)methyl)pyridin-3-yl)-1,2,6a,6b,7,8,8a,8b,11a,12,12a,12 b-dodecahydro-4H-naphtho[2',1':4,5]indeno[1,2-d][1,3]dioxol-4-one] | significantly alleviated the intestinal symptoms in inflammatory bowel disease model rats | – | –
3 | C[C@]12C=CC(=O)C=C1CC[C@H]1[C@@H]3C[C@H]4OC(c5ccc(CSC6CCOC6=O)cn5)O[C@@]4(C(=O)CO)[C@@]3(C)C[C@H](O)[C@@]12Cl (stereo partly drawn) [Compound 51, (6aS,6bR,7S,8aS,8bS,11aR,12aS,12bS)-6b-Chloro-7-hydroxy-8b-(2-hydroxyacetyl)-6a,8a-dimethyl-10-(5-(((2-oxotetrahydrofuran-3-yl)thio)methyl)pyridin-2-yl)-1,2,6a,6b,7,8,8a,8b,11a,12,12a,12 b-dodecahydro-4H-naphtho[2',1':4,5]indeno[1,2-d][1,3]dioxol-4-one] | significantly alleviated the intestinal symptoms in inflammatory bowel disease model rats | – | –
4 | C[C@]12C=CC(=O)C=C1CC[C@H]1[C@@H]3C[C@H]4OC(c5ccc(CSC6CCOC6=O)cc5)O[C@@]4(C(=O)CO)[C@@]3(C)C[C@H](O)[C@@]12F (stereo partly drawn) [Compound 17, (6aS,6bR,7S,8aS,8bS,11aR,12aS,12bS)-6b-Fluoro-7-hydroxy-8b-(2-hydroxyacetyl)-6a,8a-dimethyl-10-(4-(((2-oxotetrahydrofuran-3-yl)thio)methyl)phenyl)-1,2,6a,6b,7,8,8a,8b,11a,12,12a,12b-do decahydro-4H-naphtho[2',1':4,5]indeno[1,2-d][1,3]dioxol-4-one] | significantly alleviated the intestinal symptoms in inflammatory bowel disease model rats | > 1.7×10^5 | EC50 ([2]; EC50 of agonist activity, HEK293 reporter cells, top concentration 50 µM, read-out: Nuclear receptor enzyme activity (nM) PR): > 50000 nM
5 | C[C@]12C=CC(=O)C=C1[C@@H](F)C[C@H]1[C@@H]3C[C@H]4OC(c5ccc(CSC6CCOC6=O)cc5)O[C@@]4(C(=O)SCF)[C@@]3(C)C[C@H](O)[C@@]12F (stereo partly drawn) [Compound 34, S-(Fluoromethyl) (2S,6aS,6bR,7S,8aS,8bS,11aR,12aS,12bS)-2,6b-difluoro-7-hydroxy-6a,8a-dimethyl-4-oxo-10-(4-( ((2-oxotetrahydrofuran-3-yl)thio)methyl)phenyl)-1,2,4,6a,6b,7,8,8a,11a,12,12a,12b-dodecahydro-8bH-naphtho[2',1':4,5]indeno[1,2-d][1,3]dioxole-8b-carbothioate] | significantly inhibited the inflammatory response on the intestinal surface | > 5.0×10^5 | Macroscopic injury score ([1]; colon, day 5 after TNBS, 2 mg/kg once a day (compounds intraintestinally, dexamethasone by gavage)): 5.00 ± 0.95; EC50 [2]: > 50000 nM
6 | C[C@]12C=CC(=O)C=C1[C@@H](F)C[C@H]1[C@@H]3C[C@H]4OC(c5ccc(CSC6CCOC6=O)cc5)O[C@@]4(C(=O)OCC#N)[C@@]3(C)C[C@H](O)[C@@]12F (stereo partly drawn) [Compound 37, Cyanomethyl (2S,6aS,6bR,7S,8aS,8bS,11aR,12aS,12bS)-2,6b-difluoro-7-hydroxy-6a,8a-dimethyl-4-oxo-10-(4-( ((2-oxotetrahydrofuran-3-yl)thio)methyl)phenyl)-1,2,4,6a,6b,7,8,8a,11a,12,12a,12b-dodecahydro-8bH-naphtho[2',1':4,5]indeno[1,2-d][1,3]dioxole-8b-carboxylate] | significantly alleviated the intestinal symptoms in inflammatory bowel disease model rats | – | –
7 | C[C@]12C=CC(=O)C=C1CC[C@H]1[C@@H]3C[C@H]4OC(c5ccc(CSC6COC(=O)C6)cc5Cl)O[C@@]4(C(=O)CO)[C@@]3(C)C[C@H](O)[C@@]12F (stereo partly drawn) [Compound 20, (6aS,6bR,7S,8aS,8bS,11aR,12aS,12bS)-10-(2-Chloro-4-(((5-oxotetrahydrofuran-3-yl)thio)methyl)phenyl)-6b-fluoro-7-hydroxy-8b-(2-hydroxyacetyl)-6a,8a-dimethyl-1,2,6a,6b,7,8,8a,8b,11a,12,12a, 12b-dodecahydro-4H-naphtho[2',1':4,5]indeno[1,2-d][1,3]dioxol-4-one] | significantly alleviated the intestinal symptoms in inflammatory bowel disease model rats | – | –
8 | C[C@]12C=CC(=O)C=C1CC[C@H]1[C@@H]3C[C@H]4OC(c5ccc(CSC6COC(=O)C6)cc5)O[C@@]4(C(=O)CO)[C@@]3(C)C[C@H](O)[C@@]12Cl (stereo partly drawn) [Compound 26, (6aS,6bR,7S,8aS,8bS,11aR,12aS,12bS)-6b-Chloro-7-hydroxy-8b-(2-hydroxyacetyl)-6a,8a-dimethyl-10-(4-(((5-oxotetrahydrofuran-3-yl)thio)methyl)phenyl)-1,2,6a,6b,7,8,8a,8b,11a,12,12a,12b-do decahydro-4H-naphtho[2',1':4,5]indeno[1,2-d][1,3]dioxol-4-one] | significantly alleviated the intestinal symptoms in inflammatory bowel disease model rats | – | –
9 | C[C@]12C=CC(=O)C=C1[C@@H](F)C[C@H]1[C@@H]3C[C@H]4OC(c5ccc(CSC6CCOC6=O)nc5)O[C@@]4(C(=O)CO)[C@@]3(C)C[C@H](O)[C@@]12F (stereo partly drawn) [Compound 46, (25,6aS,6bR,78,8a8,8bS,11aR,12a8,12b8S)-2,6b-Difluoro-7-hydroxy-8b-(2-hydroxyacetyl)-6a,8a-dimethyl-10-(6-(((2-oxotetrahydrofuran-3-yl)thio)methyl)pyridin-3-yl)-1,2,6a,6b,7,8,8a,8b,11a,12, 12a,12b-dodecahydro-4H-naphtho[2',1':4,5]indeno[1,2-d][1,3]dioxol-4-one] | significantly alleviated the intestinal symptoms in inflammatory bowel disease model rats | – | –
10 | C[C@]12C=CC(=O)C=C1CC[C@H]1[C@@H]3C[C@H]4OC(c5ccc(CNC6COC(=O)C6)cc5)O[C@@]4(C(=O)CO)[C@@]3(C)C[C@H](O)[C@@]12F (stereo partly drawn) [Compound 21, (6aS,6bR,7S,8aS,8bS,11aR,12aS,12bS)-6b-Fluoro-7-hydroxy-8b-(2-hydroxyacetyl)-6a,8a-dimethyl-10-(4-(((5-oxotetrahydrofuran-3-yl)amino)methyl)phenyl)-1,2,6a,6b,7,8,8a,8b,11a,12,12a,12b-dodecahydro-4H-naphtho[2',1':4,5]indeno[1,2-d][1,3]dioxol-4-one] | significantly alleviated the intestinal symptoms in inflammatory bowel disease model rats | – | –
